Solubility and pKa data for two compounds are collected here from EP0754034B1, “EFFERVESCENT PHARMACEUTICAL FORMULATIONS CONTAINING CONTROLLED RELEASE BIODEGRADABLE MICROCAPSULES” (ELAN CORPORATION, Plc, priority 1994, dated 1995).

SMILES strings stand for the structures. ≈ marks a conversion by molar mass, not a printed value. Read-outs that look alike come from different tables or passages of the source.

Series [1] in a line: Saturated solubility (Cs) measured to establish sink conditions. The format is physicochemical. As for the experimental part: Prior to carrying out in vitro release studies, the saturated solubility of diltiazem HCI was measured in order to establish sink conditions.
Prior to carrying out in vitro release studies, the saturated solubility of diltiazem base was measured in order to establish sink conditions. […] The microsphere systems studied had diltiazem base starting loadings of 10% w/w, 20% w/w, 30% w/w, and 50% w/w, D 50% of […], respectively, and were prepared by Method A using the Ultra Turrax.

The conditions of series [2]: cited from earlier work.

For `COc1ccc([C@@H]2Sc3ccccc3N(CCN(C)C)C(=O)[C@@H]2OC(C)=O)cc1` [Diltiazem HCI], the solubility in series [1] (aqueous buffer, thermodynamic from solid, phosphate buffer pH 7.4, read-out: Cs (saturated solubility)) was 2.39 mg/mL (≈ 5.77 mM); in series [1] (pH 1.2, read-out: Cs (saturated solubility)), > 1000 mg/mL.
Consider `COc1ccc([C@@H]2Sc3ccccc3N(CCN(C)C)C(=O)[C@@H]2OC(C)=O)cc1` [Diltiazem base], for which the solubility is 227 mg/mL (≈ 549 mM) in series [1] (pH 1.2, simulated gastric fluid, thermodynamic from solid) and 1.06 mg/mL (≈ 2.56 mM) in series [1] (pH 7.4, aqueous buffer, thermodynamic from solid). Moreover, in series [2], the pKa entry is listed as “around 8”.
